According to ChEMBL document CHEMBL4665744, “Diverse Types of Diterpenoids with an Aromatized C Ring from the Twigs of Podocarpus imbricatus” (J Nat Prod, 2020):
The source made the active and inactive calls. No cut-off for these calls is given here.

What was measured:
[1] = Cytotoxicity activity against African green monkey Vero cells assessed as reduction in cell viability by MTT assay; assay type: cell-based; conditions: chlorocebus sabaeus
Zika virus = assay: Antiviral activity against Zika virus; assay type: functional, organism-based

| Structure (SMILES) | Activity (Zika virus) | other results |
| --- | --- | --- |
| COc1c(C)c2c(c(O)c1C/C=C(\C)CCC(=O)O)C(=O)OC2 [MYCOPHENOLIC ACID] |  | CC50 [1]: 18.7 µM |
| CC(C)c1cc2c(cc1O)C[C@@H](O)[C@H]1[C@](C)(CO)CCC[C@]21C | inactive |  |
| C[C@H](CO)c1cc2c(cc1O)[C@@]1(C)CCC[C@](C)(C(=O)O)[C@@H]1CC2 | inactive |  |
| CC(C)c1cc2c(cc1O)[C@@H](O)[C@@H](O)[C@H]1[C@](C)(CO)CCC[C@]21C |  | IC50 (Zika virus): 2.5 µM |
| CC(C)c1c(O)ccc2c1CC[C@H]1C(C)(C)CC[C@@H](O)[C@]21C | inactive |  |
